From patent publication US20240409585A1, “MACROCYCLIC IMMUNOMODULATORS” (priority 2021, published 2024)
Bridge positions count the residues as written; N and C are the ends. Square brackets hold non-standard residues; d marks the D form. Peptide text beside a SMILES is read from it. * marks the point of attachment. ξ: configuration not given here. Phe(4-COOH) = N[C@@H](Cc1ccc(C(=O)O)cc1)C(=O)O; Bip = N[C@@H](Cc1ccc(-c2ccccc2)cc1)C(=O)O; Phe(3-Me) = Cc1cccc(C[C@H](N)C(=O)O)c1; Val(3-OH) = CC(C)(O)[C@H](N)C(=O)O; Cha = N[C@@H](CC1CCCCC1)C(=O)O; Ile(3ξ) = CCC(C)[C@H](N)C(=O)O; Carboxymethyl = O=C(O)C*; NMeA = CN[C@@H](C)C(=O)O; Pra = C#CC[C@H](N)C(=O)O; Dab = NCC[C@H](N)C(=O)O

target: T1, PE-labeled human PD-L1-Ig binding to Jurkat cell line over-expressing human PD-1 (Jurkat-PD-1) (Homo sapiens, UniProt Q15116); assay: Jurkat-PD-1 Cell Binding High-Content Screening Assay (CBA): Method 1; conditions: Jurkat-hPD-1 cells, PE-labeled PD-L1-Ig 20 nM final; read-out: Jurkat HPDL1 PD1 IC50 (uM) (Method 1)
T1 construct: expressed in transfected cells; host or cells: Jurkat
T1 sequence (Q15116 25-288): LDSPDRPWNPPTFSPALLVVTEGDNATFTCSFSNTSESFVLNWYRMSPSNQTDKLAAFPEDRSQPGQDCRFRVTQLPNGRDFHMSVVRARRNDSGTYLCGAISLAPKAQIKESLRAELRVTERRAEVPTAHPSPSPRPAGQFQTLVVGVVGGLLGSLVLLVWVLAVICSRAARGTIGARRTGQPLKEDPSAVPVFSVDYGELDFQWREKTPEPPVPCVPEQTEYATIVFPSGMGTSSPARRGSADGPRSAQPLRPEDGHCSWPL

| Compound | IC50 |
| --- | --- |
| C#CC[C@H](NC(=O)CNC(=O)[C@@H]1CSCC(=O)N[C@@H](Cc2ccc(OCC(=O)O)cc2)C(=O)N[C@@H](Cc2ccc(C(=O)O)cc2)C(=O)N[C@@H](CC(=O)O)C(=O)N[C@@H](Cc2c[nH]c3ccccc23)C(=O)N[C@@H](CC(C)C)C(=O)N[C@@H](Cc2ccc(-c3ccccc3)cc2)C(=O)N[C@@H](C(C)C)C(=O)N(C)[C@@H](C)C(=O)N[C@H](CC(C)C)C(=O)N[C@@H](CCN)C(=O)N[C@@H](CC2CCCCC2)C(=O)N[C@@H](C(C)C)C(=O)N[C@@H](CO)C(=O)N1)C(N)=O [Compound 1932] ({CH2CO}-Y(Carboxymethyl)[Phe(4-COOH)]DWL[Bip]V[NMeA][dL][Dab][Cha]VSCG[Pra]-NH2; thioether N-14) | 0.02 µM |
| C#CC[C@H](NC(=O)CNC(=O)[C@@H]1CSCC(=O)N[C@@H](Cc2ccc(OCC(=O)O)cc2)C(=O)N[C@@H](Cc2ccc(C(=O)O)cc2)C(=O)N[C@@H](CC(=O)O)C(=O)N[C@@H](Cc2c[nH]c3ccccc23)C(=O)N[C@@H](CC(C)C)C(=O)N[C@@H](Cc2ccc(-c3ccccc3)cc2)C(=O)N[C@@H](C(C)C)C(=O)N(C)[C@@H](C)C(=O)N[C@H](CC(C)C)C(=O)N[C@@H](CCN)C(=O)N[C@@H](CC2CCCCC2)C(=O)N[C@@H](C(C)(C)O)C(=O)N[C@@H](CO)C(=O)N1)C(=O)O [Compound 1935] ({CH2CO}-Y(Carboxymethyl)[Phe(4-COOH)]DWL[Bip]V[NMeA][dL][Dab][Cha][Val(3-OH)]SCG[Pra]-OH; thioether N-14) | 0.04 µM |
| C#CC[C@H](NC(=O)[C@H](CCN)NC(=O)[C@@H]1CSCC(=O)N[C@@H]([C@@H](C)O)C(=O)N[C@@H](Cc2ccc(OCC(=O)O)cc2)C(=O)N[C@@H](CC(=O)O)C(=O)N[C@@H](Cc2cccc(C)c2)C(=O)N[C@@H](Cc2ccc(OCC(=O)O)cc2)C(=O)N[C@@H](Cc2ccc(-c3ccccc3)cc2)C(=O)N[C@@H](Cc2ccc(OCC(=O)O)cc2)C(=O)N(C)[C@@H](C)C(=O)N[C@H](CC(C)C)C(=O)N[C@@H](CCN)C(=O)N[C@@H](CC2CCCCC2)C(=O)N[C@@H](C(C)(C)O)C(=O)N[C@@H](CCC(=O)O)C(=O)N1)C(=O)O [Compound 1937] ({CH2CO}-TY(Carboxymethyl)D[Phe(3-Me)]Y(Carboxymethyl)[Bip]Y(Carboxymethyl)[NMeA][dL][Dab][Cha][Val(3-OH)]EC[Dab][Pra]-OH; thioether N-14) | 0.07 µM |
| C#CC[C@H](NC(=O)CNC(=O)[C@@H]1CSCC(=O)N[C@@H]([C@@H](C)O)C(=O)N[C@@H](Cc2ccc(OCC(=O)O)cc2)C(=O)N[C@@H](CC(=O)O)C(=O)N[C@@H](Cc2cccc(C)c2)C(=O)N[C@@H](Cc2ccc(OCC(=O)O)cc2)C(=O)N[C@@H](Cc2ccc(-c3ccccc3)cc2)C(=O)N[C@@H](Cc2ccc(OCC(=O)O)cc2)C(=O)N(C)[C@@H](C)C(=O)N[C@H](CC(C)C)C(=O)N[C@@H](CCN)C(=O)N[C@@H](CC2CCCCC2)C(=O)N[C@@H](C(C)(C)O)C(=O)N[C@@H](CCC(=O)O)C(=O)N1)C(=O)O [Compound 1938] ({CH2CO}-TY(Carboxymethyl)D[Phe(3-Me)]Y(Carboxymethyl)[Bip]Y(Carboxymethyl)[NMeA][dL][Dab][Cha][Val(3-OH)]ECG[Pra]-OH; thioether N-14) | 0.34 µM |
| C#CC[C@H](NC(=O)CNC(=O)[C@@H]1CSCC(=O)N[C@@H]([C@@H](C)O)C(=O)N[C@@H](Cc2ccc(OCC(=O)O)cc2)C(=O)N[C@@H](CC(=O)O)C(=O)N[C@@H](Cc2cccc(C)c2)C(=O)N[C@@H](Cc2ccc(OCC(=O)O)cc2)C(=O)N[C@@H](Cc2ccc(-c3ccccc3)cc2)C(=O)N[C@@H](Cc2ccc(OCC(=O)O)cc2)C(=O)N(C)[C@@H](C)C(=O)N[C@H](CC(C)C)C(=O)N[C@@H](CCN)C(=O)N[C@@H](CC2CCCCC2)C(=O)N[C@@H](C(C)(C)O)C(=O)N[C@@H](CCC(=O)O)C(=O)N1)C(N)=O [Compound 1939] ({CH2CO}-TY(Carboxymethyl)D[Phe(3-Me)]Y(Carboxymethyl)[Bip]Y(Carboxymethyl)[NMeA][dL][Dab][Cha][Val(3-OH)]ECG[Pra]-NH2; thioether N-14) | 0.11 µM |

Now from value to molecule:

| IC50 | Compound |
| --- | --- |
| 0.02 µM | CCC(C)[C@@H]1NC(=O)[C@H](Cc2ccc(-c3ccccc3)cc2)NC(=O)[C@H](CC(C)C)NC(=O)[C@H](Cc2c[nH]c3ccccc23)NC(=O)[C@H](CC(=O)O)NC(=O)[C@H](Cc2ccc(C(=O)O)cc2)NC(=O)[C@H](Cc2ccc(OCC(=O)O)cc2)NC(=O)CSC[C@@H](C(=O)N[C@@H](CO)C(N)=O)NC(=O)[C@H](CCC(=O)O)NC(=O)[C@H](C(C)C)NC(=O)[C@H](CC2CCCCC2)NC(=O)[C@H](CCN)NC(=O)[C@@H](CC(C)C)NC(=O)[C@H](C)N(C)C1=O (stereo partly drawn) [Compound 1930] ({CH2CO}-Y(Carboxymethyl)[Phe(4-COOH)]DWL[Bip][Ile(3ξ)][NMeA][dL][Dab][Cha]VECS-NH2; thioether N-14) |
| 0.02 µM | CCC(C)[C@@H]1NC(=O)[C@H](Cc2ccc(-c3ccccc3)cc2)NC(=O)[C@H](CC(C)C)NC(=O)[C@H](Cc2c[nH]c3ccccc23)NC(=O)[C@H](CC(=O)O)NC(=O)[C@H](Cc2ccc(C(=O)O)cc2)NC(=O)[C@H](Cc2ccc(OCC(=O)O)cc2)NC(=O)CSC[C@@H](C(=O)N[C@@H](CO)C(N)=O)NC(=O)[C@H](CCC(N)=O)NC(=O)[C@H](C(C)C)NC(=O)[C@H](CC2CCCCC2)NC(=O)[C@H](CCN)NC(=O)[C@@H](CC(C)C)NC(=O)[C@H](C)N(C)C1=O (stereo partly drawn) [Compound 1931] ({CH2CO}-Y(Carboxymethyl)[Phe(4-COOH)]DWL[Bip][Ile(3ξ)][NMeA][dL][Dab][Cha]VQCS-NH2; thioether N-14) |
| 0.01 µM | C#CC[C@H](NC(=O)CNC(=O)[C@@H]1CSCC(=O)N[C@@H](Cc2ccc(OCC(=O)O)cc2)C(=O)N[C@@H](Cc2ccc(C(=O)O)cc2)C(=O)N[C@@H](CC(=O)O)C(=O)N[C@@H](Cc2c[nH]c3ccccc23)C(=O)N[C@@H](CC(C)C)C(=O)N[C@@H](Cc2ccc(-c3ccccc3)cc2)C(=O)N[C@@H](C(C)C)C(=O)N(C)[C@@H](C)C(=O)N[C@H](CC(C)C)C(=O)N[C@@H](CCN)C(=O)N[C@@H](CC2CCCCC2)C(=O)N[C@@H](C(C)(C)O)C(=O)N[C@@H](CO)C(=O)N1)C(N)=O [Compound 1933] ({CH2CO}-Y(Carboxymethyl)[Phe(4-COOH)]DWL[Bip]V[NMeA][dL][Dab][Cha][Val(3-OH)]SCG[Pra]-NH2; thioether N-14) |
| 0.01 µM | C#CC[C@H](NC(=O)CNC(=O)[C@@H]1CSCC(=O)N[C@@H](Cc2ccc(OCC(=O)O)cc2)C(=O)N[C@@H](Cc2ccc(C(=O)O)cc2)C(=O)N[C@@H](CC(=O)O)C(=O)N[C@@H](Cc2c[nH]c3ccccc23)C(=O)N[C@@H](CC(C)C)C(=O)N[C@@H](Cc2ccc(-c3ccccc3)cc2)C(=O)N[C@@H](C(C)C)C(=O)N(C)[C@@H](C)C(=O)N[C@H](CC(C)C)C(=O)N[C@@H](CCN)C(=O)N[C@@H](CC2CCCCC2)C(=O)N[C@@H](C(C)C)C(=O)N[C@@H](CO)C(=O)N1)C(=O)O [Compound 1934] ({CH2CO}-Y(Carboxymethyl)[Phe(4-COOH)]DWL[Bip]V[NMeA][dL][Dab][Cha]VSCG[Pra]-OH; thioether N-14) |
